# Laboratory results: US9783537B2, “3-(4-ethylnylphenyl) pyridopyrimidinone compounds and process for preparation thereof useful as potential anticancer agents” (Council of Scientific & Industrial Research, priority 2013, dated 2017)
# Like-named read-outs stand apart in the source and are kept apart here.
# What was measured:
# [1] = test system: SN12C; experiment: SRB 48 h growth assay, Renal SN12C; assay type: cell-based, human; settings: for GI50 / CC50: Homo sapiens; for CC50: read-out: Log10 LC50 (converted)
# [2] = test system: U251; experiment: SRB 48 h growth assay, CNS U251; assay type: cell-based, human; settings: for GI50 / CC50: Homo sapiens; for CC50: U-251, read-out: Log10 LC50 (converted)
# [3] = test system: HCC-2998; experiment: SRB 48 h growth assay, Colon HCC-2998; assay type: cell-based, human; settings: HCC-2998, Colon; for GI50 / CC50: Homo sapiens; for CC50: read-out: Log10 LC50 (converted)
# [4] = test system: HT-29; experiment: SRB 48 h growth assay, Colon HT-29; assay type: cell-based, human; settings: HT-29, Colon; for GI50 / CC50: Homo sapiens; for CC50: read-out: Log10 LC50 (converted)
# [5] = test system: MOLT-4; experiment: SRB 48 h growth assay, Leukemia MOLT-4; assay type: cell-based, human; settings: MOLT-4, Leukemia; for GI50 / CC50: Homo sapiens; for CC50: read-out: Log10 LC50 (converted)
# [6] = test system: eight renal cancer cell line (786-0, A498, ACHN, CAKI-1, SN12C, TK-10, UO-31 and RXF 393); experiment: in vitro anticancer activity, renal panel; assay type: cell-based; settings: Homo sapiens; eight renal cancer cell lines, exposure at least 48 h; read-out: in vitro anticancer activity, range over panel
# [7] = test system: SK-MEL-28; experiment: SRB 48 h growth assay, Melanoma SK-MEL-28; assay type: cell-based, human; settings: SK-MEL-28, Melanoma; for GI50 / CC50: Homo sapiens; for CC50: read-out: Log10 LC50 (converted)
# [8] = test system: SR; experiment: SRB 48 h growth assay, Leukemia SR; assay type: cell-based, human; settings: for GI50 / CC50: Homo sapiens; for CC50: read-out: Log10 LC50 (converted)
# [9] = test system: NCI-H460; experiment: SRB 48 h growth assay, Non-small Cell Lung NCI-H460; assay type: cell-based, human; settings: for GI50 / LC50: Homo sapiens; for LC50: read-out: Log10 LC50 (converted)
# [10] = test system: COLO 205; experiment: SRB 48 h growth assay, Colon COLO 205; assay type: cell-based, human; settings: COLO 205, Colon; for GI50 / CC50: Homo sapiens; for CC50: read-out: Log10 LC50 (converted)
# [11] = test system: SK-MEL-2; experiment: SRB 48 h growth assay, Melanoma SK-MEL-2; assay type: cell-based, human; settings: SK-MEL-2, Melanoma; for GI50 / CC50: Homo sapiens; for CC50: read-out: Log10 LC50 (converted)
# [12] = test system: NCI-H322M; experiment: SRB 48 h growth assay, Non-small Cell Lung NCI-H322M; assay type: cell-based, human; settings: for GI50 / CC50: Homo sapiens; for CC50: read-out: Log10 LC50 (converted)
# [13] = test system: CAKI-1; experiment: SRB 48 h growth assay, Renal CAKI-1; assay type: cell-based, human; settings: CAKI-1, Renal; for GI50 / CC50: Homo sapiens; for CC50: read-out: Log10 LC50 (converted)
# [14] = test system: OVCAR-5; experiment: SRB 48 h growth assay, Ovarian OVCAR-5; assay type: cell-based, human; settings: OVCAR-5, Ovarian; for GI50 / CC50: Homo sapiens; for CC50: read-out: Log10 LC50 (converted)
# [15] = read-out: Growth Inhibition GI50
# [16] = read-out: Log10 GI50 (converted)
# [17] = U-251, read-out: Growth Inhibition GI50
# [18] = U-251, read-out: Log10 GI50 (converted)
smiles,measurement,setting,value
"C#Cc1ccc(-n2c(/C=C/c3ccc(C(F)(F)F)cc3)nc3ncccc3c2=O)cc1 [4c, (E)-3-(4-Ethynylphenyl)-2-(4-(trifluoromethyl)styryl)pyrido[2,3-d]pyrimidin-4(3H)-one]",Log10 TGI50,[1],−5.25
same,GI50,[1]; [15],2080 nM
same,GI50,[1]; [16],2090 nM
same,CC50,[1],> 100000 nM
same,Log10 TGI50,[2],−5.50
same,GI50,[2]; [17],1670 nM
same,GI50,[2]; [18],1660 nM
same,CC50,[2],5890 nM
same,Log10 TGI50,[3],−5.46
same,GI50,[3]; [15],1960 nM
same,GI50,[3]; [16],1950 nM
same,CC50,[3],6170 nM
same,Log10 TGI50,[4],−5.40
same,GI50,[4]; [15],2030 nM
same,GI50,[4]; [16],2040 nM
same,CC50,[4],7760 nM
same,GI50,[5]; [15],3010 nM
same,GI50,[5]; [16],3020 nM
same,CC50,[5],> 100000 nM
same,Log10 TGI50,[5],−5.06
same,GI50,[6],1690 to 4080 nM
same,GI50,[7]; [15],1780 nM
same,GI50,[7]; [16],1780 nM
same,CC50,[7],6030 nM
same,Log10 TGI50,[7],−5.49
same,Log10 TGI50,[8],−5.09
same,GI50,[8]; [15],2000 nM
same,GI50,[8]; [16],2000 nM
same,CC50,[8],> 100000 nM
same,Log10 TGI50,[9],−5.38
same,GI50,[9]; [15],1980 nM
same,GI50,[9]; [16],2000 nM
same,LC50,[9],8710 nM
same,Log10 TGI50,[10],−5.35
same,GI50,[10]; [15],2230 nM
same,GI50,[10]; [16],2240 nM
same,CC50,[10],8910 nM
same,GI50,[11]; [15],2030 nM
same,GI50,[11]; [16],2040 nM
same,CC50,[11],8320 nM
same,Log10 TGI50,[11],−5.39
same,Log10 TGI50,[12],−5.15
same,GI50,[12]; [15],2250 nM
same,GI50,[12]; [16],2240 nM
same,CC50,[12],27500 nM
same,Log10 TGI50,[13],−5.21
same,GI50,[13]; [15],2260 nM
same,GI50,[13]; [16],2240 nM
same,CC50,[13],> 100000 nM
same,GI50,[14]; [15],1940 nM
same,GI50,[14]; [16],1950 nM
same,CC50,[14],6610 nM
same,Log10 TGI50,[14],−5.45
"C#Cc1ccc(-n2c(/C=C/c3ccc4ccccc4c3)nc3ncccc3c2=O)cc1 [4s, (E)-3-(4-Ethynylphenyl)-2-(2-(naphthalen-2-yl)vinyl)pyrido[2,3-d]pyrimidin-4(3H)-one]",Log10 TGI50,[1],>−4.00
same,GI50,[1]; [15],3290 nM
same,GI50,[1]; [16],3310 nM
same,CC50,[1],> 100000 nM
same,Log10 TGI50,[2],>−4.00
same,GI50,[2]; [17],3690 nM
same,GI50,[2]; [18],3720 nM
same,CC50,[2],> 100000 nM
same,Log10 TGI50,[3],−5.30
same,GI50,[3]; [15],2320 nM
same,GI50,[3]; [16],2290 nM
same,CC50,[3],5010 nM
same,Log10 TGI50,[4],>−4.00
same,GI50,[4]; [15],3260 nM
same,GI50,[4]; [16],3240 nM
same,CC50,[4],> 100000 nM
same,GI50,[5]; [15],2000 nM
same,GI50,[5]; [16],2000 nM
same,CC50,[5],> 100000 nM
same,Log10 TGI50,[5],>−4.00
same,GI50,[6],220 to 430 nM
same,GI50,[7]; [15],4330 nM
same,GI50,[7]; [16],4370 nM
same,CC50,[7],> 100000 nM
same,Log10 TGI50,[7],>−4.00
same,Log10 TGI50,[8],>−4.00
same,GI50,[8]; [15],1400 nM
same,GI50,[8]; [16],1410 nM
same,CC50,[8],> 100000 nM
same,Log10 TGI50,[9],>−4.00
same,GI50,[9]; [15],2880 nM
same,GI50,[9]; [16],2880 nM
same,LC50,[9],> 100000 nM
same,Log10 TGI50,[10],−5.44
same,GI50,[10]; [15],2060 nM
same,GI50,[10]; [16],2040 nM
same,CC50,[10],3630 nM
same,GI50,[11]; [15],2410 nM
same,GI50,[11]; [16],2400 nM
same,CC50,[11],6170 nM
same,Log10 TGI50,[11],−5.21
same,Log10 TGI50,[12],>−4.00
same,GI50,[12]; [15],7300 nM
same,GI50,[12]; [16],7240 nM
same,CC50,[12],> 100000 nM
same,Log10 TGI50,[13],>−4.31
same,GI50,[13]; [15],2980 nM
same,GI50,[13]; [16],2950 nM
same,CC50,[13],> 100000 nM
same,GI50,[14]; [15],6880 nM
same,GI50,[14]; [16],6920 nM
same,CC50,[14],> 100000 nM
same,Log10 TGI50,[14],>−4.00
